Experimental data from patent publication US6420563B1, “Small molecule modulators of G protein-coupled receptor six” (Arena Pharmaceuticals, Inc., priority 1998, dated 2002).

Key:
GPR6:Gsα-Fusion Protein = biological target: T1, GPR6:Gsα-Fusion Protein (Homo sapiens, UniProt P46095); experiment: [35S]GTPγS membrane binding assay (Example 4A); type: biochemical; settings: mean +/- standard deviation (number of assays in brackets); read-out: IC50 Values GTP Assay Example 4A
T1 construct: expressed in transfected cells
T1 sequence (P46095 with tags, fused parts or gaps): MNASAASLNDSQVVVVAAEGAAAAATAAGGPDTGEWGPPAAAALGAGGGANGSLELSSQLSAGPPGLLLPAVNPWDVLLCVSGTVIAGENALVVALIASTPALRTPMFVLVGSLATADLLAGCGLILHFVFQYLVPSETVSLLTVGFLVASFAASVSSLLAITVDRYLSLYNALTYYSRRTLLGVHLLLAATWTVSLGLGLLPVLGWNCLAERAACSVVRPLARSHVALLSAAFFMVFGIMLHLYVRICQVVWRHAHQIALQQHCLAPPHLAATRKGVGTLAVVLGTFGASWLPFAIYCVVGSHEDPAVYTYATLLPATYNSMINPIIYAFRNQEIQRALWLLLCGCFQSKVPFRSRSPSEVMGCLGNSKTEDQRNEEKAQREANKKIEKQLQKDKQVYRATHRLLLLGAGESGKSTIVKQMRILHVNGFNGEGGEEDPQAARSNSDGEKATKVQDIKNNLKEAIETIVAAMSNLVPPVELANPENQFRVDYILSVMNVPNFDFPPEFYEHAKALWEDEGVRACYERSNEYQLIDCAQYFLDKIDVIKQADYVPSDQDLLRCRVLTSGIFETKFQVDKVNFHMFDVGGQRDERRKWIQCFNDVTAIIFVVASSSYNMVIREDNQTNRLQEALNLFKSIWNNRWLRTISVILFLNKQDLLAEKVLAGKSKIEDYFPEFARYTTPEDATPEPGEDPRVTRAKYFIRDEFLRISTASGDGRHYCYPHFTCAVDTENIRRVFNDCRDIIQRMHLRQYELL
Experimental: The assay plates were then centrifuged at 400 rpm for 15 minutes at room temperature and then subsequently aspirated and counted in a scintillation counter.
Membranes expressing the GPCR6:Gsα-Fusion Protein (see Example 2) and for use in the direct identification of candidate compounds as inverse agonists, agonists or partial agonists were prepared as follows:
All materials were kept on ice throughout the procedure. Firstly, the media was aspirated from a confluent monolayer of cells, followed by rinse with 10 ml cold PBS, followed by aspiration. Thereafter, 5 ml of membrane Scrape Buffer was added to scrape cells; this was followed by transfer of cellular extract into 50 ml centrifuge tubes (centrifuged at 20,000 rpm for 17 minutes at 4° C.). Thereafter, the supernatant was aspirated and the pellet was resuspended in 30 ml Membrane Wash Buffer followed by centrifuge at 20,000 rpm for 17 minutes at 4° C. The supernatant was then aspirated and the pellet resuspended in Binding Buffer. This was then homogenized using a Brinkman polytron™ homogenizer (15-20 second bursts until the all material was in suspension). This is referred to herein as “Membrane Protein”.
Candidate compounds (Tripos, Inc., St. Louis, Mo.) were received in 96-well plates (these can be frozen at −80° C.). Membrane Protein (or membranes with expression vector excluding the GPR6:Gsα-Fusion Protein, as control), were homogenized briefly until in suspension. Protein concentration was then determined using the Bradford Protein Assay set forth above. […] Thereafter, 100 ul GDP Buffer was added to each well of a Wallac Scintistrip™ (Wallac). A 5 ul pin-tool was then used to transfer 5 ul of a candidate compound into such well (i.e., 5 ul in total assay volume of 200 ul is a 1:40 ratio such that the final screening concentration of the candidate compound is 10 uM). Again, to avoid contamination, after each transfer step the pin tool was rinsed in three reservoirs comprising water (1×), ethanol (1×) and water (2×)—excess liquid should be shaken from the tool after each rinse and dried with paper towels and kimwipes™. Thereafter, 50 ul of Membrane Protein was added to each well (a control well comprising membranes without the GPCR Fusion Protein is also utilized), and pre-incubated for 5-10 minutes at room temperature (the plates were covered with foil in that the candidate compounds obtained from Tripos are light sensitive). Thereafter, 50 ul of [^35S]GTPγS (0.6 nM) in Binding Buffer was added to each well, followed by incubation on a shaker for 60 minutes at room temperature (again, in this example, plates were covered with foil). The assay was then stopped by spinning of the plates at 4000 RPM for 15 minutes at 22° C. The plates were then aspirated with an 8 channel manifold and sealed with plastic plate covers. The plates were then read on a Wallac 1450 using setting “Prot. #37” (as per manufacturer instructions).
The initial or “primary” screen designed to directly identify, e.g., human GPR6 receptor inverse agonists, consisted of the membrane-based GTPγS binding assay of Example 4A utilizing membranes prepared from 293 stable cells. Candidate compounds directly identified as inhibiting receptor-mediated increases in GTPγS as set forth below were considered active “leads”.
It is preferred that following such direct identification, IC50 (inverse agonist) or EC50 (agonist) values be determined; those having ordinary skill in the art are credited with utilizing IC50 and EC50 assay protocols of choice. FIG. 4 provides a representative IC50 curve for compound ARE112 using the assay protocol of Example 4A.

GPR6 = biological target: T2, GPR6 (Homo sapiens, UniProt P46095); experiment: membrane-based cyclic AMP confirmation assay (Example 4C); type: biochemical; settings: mean +/- standard deviation (number of assays in brackets); read-out: IC50 Values Cyclic AMP Assay Example 4C
T2 construct: expressed in transfected cells; 293 cells are used elsewhere
T2 sequence (P46095 whole entry): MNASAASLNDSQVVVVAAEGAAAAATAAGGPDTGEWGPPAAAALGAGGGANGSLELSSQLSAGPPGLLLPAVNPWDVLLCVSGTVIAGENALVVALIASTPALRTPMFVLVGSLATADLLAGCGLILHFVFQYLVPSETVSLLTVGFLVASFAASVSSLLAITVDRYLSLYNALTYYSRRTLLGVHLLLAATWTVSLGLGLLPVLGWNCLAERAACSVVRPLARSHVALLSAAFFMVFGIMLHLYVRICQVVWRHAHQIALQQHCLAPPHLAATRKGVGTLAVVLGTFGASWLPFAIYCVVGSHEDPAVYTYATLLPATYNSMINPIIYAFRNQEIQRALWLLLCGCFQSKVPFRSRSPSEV
Text: Using an independent assay approach to provide confirmation of a directly identified candidate compound as set forth above, it is preferred that a confirmation assay then be utilized. In this case, the preferred confirmation assay is membrane-based cyclic AMP (cAMP) assay.
A modified Flash Plate™ Adenylyl Cyclase kit (New England Nuclear; Cat. No. SMP004A) was utilized for confirmation of candidate compounds directly identified as inverse agonists and agonists to endogenous, constitutively activated orphan GPCRs in accordance with the following protocol.
Transfected stable cells were harvested approximately three days after transfection. Membranes were prepared by homogenization of suspended cells in buffer containing 20 mM HEPES, pH 7.4 and 10 mM MgCl2. Homogenization was performed on ice using a Brinkman Polytron™ for approximately 10 seconds. The resulting homogenate was centrifuged at 20,000 rpm for 20 minutes at 4° C. The resulting pellet was then resuspended in buffer containing 20 mM HEPES, pH 7.4 and 0.1 mM EDTA, homogenized for 10 seconds, followed by centrifugation at 20,000 rpm for 20 minutes at 4° C. The resulting pellet can be stored at −80° C. until utilized. On the day of direct identification screening, the membrane pellet is slowly thawed at room temperature, resuspended in buffer containing 20 mM HEPES, pH 7.4, 100 mM NaCl and 10 mM MgCL2, to yield a final protein concentration of 0.60 mg/ml (the resuspended membranes are placed on ice until use).
Candidate compounds identified as per above (if frozen, thawed at room temperature) were added to plate wells (3 μl/well; 12 μM final assay concentration), together with 50 μl Membrane Protein (30 μg/well) and 50 μl of Assay Buffer. This admixture was then incubated for 30 minutes at room temperature, with gentle shaking.
Following the incubation, 100 μl of Detection Buffer was added to each well, followed by incubation for 2-20 hours. Plates were subsequently aspirated and then counted in a Wallac MicroBeta™ plate reader using “Prot. #31” (as per manufacturer instructions).

[1] = Food/water intake and body weight in 24-hour food deprived rats, oral gavage (PO); type: in vivo, rat
Experimental: Based upon the in vivo data developed, oral bioavailability of compound ARE112 was determined. The compound was administered by oral gavage at doses ranging from 6.75 to 54 mg/kg. The data presented in FIGS. 9A and 9B support the conclusion that oral administration of ARE112 also decreases food intake in both food-deprived and non-food deprived rats. […] In FIG. 9A, rats were deprived 24 hours prior to oral administration of the compound. In this assay, the vehicle-treated rats at 2.5 hours consumed […] of food while injected rats; particularly rats administered with 27 and 54 mg/kg of ARE 112, ate about 6 and 4 grams, respectively. […] (See, FIG. 9A).
Several other GPR6 inverse agonists were also assessed under 24-hour food deprived conditions, with PO administration. The analogs listed below were tested at 200 μmol/kg, which is equivalent to 54 mg/kg. In addition, ARE114 was also assessed at […]. Data are summarized below in Table C:
In a second assay, tested under the same conditions, several other analogs were assessed at 100 μmol/kg.
In FIG. 10, rats were deprived 24 hours prior to oral administration of the compound. In this assay, analogs ARE130, ARE135, ARE136, and ARE140, were administered at a dose of 100 μmol/kg. Three analogs, particularly, ARE130, ARE136 and ARE140 evidenced a slow intake of food (e.g., about 1 to 1.5 grams every two hours) over an eight hour period post-administration; while the vehicle rat consumed about 2 to 2.5 grams food every two hours. Similar to the vehicle rat, analog ARE135, an opened ring structure, evidenced that over an eight hour period post-administration the rats increasingly consumed about 2.5 grams every two hours. (See, FIG. 10A). Furthermore, the body weight of the vehicle rat and administered rats with analog ARE135 gained about 19.5 grams. On the other hand, the closed ring structures evidenced a decrease in body weight gain as follows: ARE112-6 grams, ARE130-9 grams, ARE136-11 grams and ARE140-14 grams. See, FIG. 10C.

[2] = 100 μmol/kg PO, second assay, Table D, vehicle 19.25

SMILES	IC50 (GPR6:Gsα-Fusion Protein) [nM]	IC50 (GPR6) [nM]	also measured
O=C(N=C1SSC2=NCCN21)c1cnn(-c2ccc(Cl)cc2)c1C(F)(F)F [ARE152, N-(5,6dihydro-3H-imidazo[2,1-c]-1,2,4-dithiazol-3-ylidene)-2-(4-chlorophenyl)-3-(trifluoromethyl)pyrazole-4-carboxamide]	190		
COc1cccc(C(=O)NC(=S)N2CCNC2=S)c1 [ARE123, N-(2-thioxo-imidazolidine-1-carbothioyl)-3-methoxybenzamide]	56000	51000	
O=C(NC(=S)N1CCNC1=S)c1ccccc1F [ARE131, N-(2-thioxo-imidazolidine-1-carbothioyl)-2-fluorobenzamide]	43000		
O=C(N=C1SSC2=NCCN21)c1cccnc1 [ARE156, N-(5,6-dihydro-3H-imidazo[2,1-c]-1,2,4-dithiazol-3-ylidene)-pyridine-3-carboxamide]	670	133	
O=C(NC(=S)N1CCNC1=S)c1cnn(-c2ccc(Cl)cc2)c1C(F)(F)F [ARE153, N-(2-thioxo-imidazolidine-1-carbothioyl)-2-(4-chlorophenyl)-3-(trifluoromethyl)pyrazole-4-carboxamide]	2460		
COc1cccc(C(=O)N=C2SSC3=NCCN32)c1 [ARE124, N-(5,6-dihydro-3H-imidazo[2,1-c]-1,2,4-dithiazol-3-ylidene)-3-methoxybenzamide]	310	400	
O=C(NC(=S)N1CCNC1=S)c1cccc2ccccc12 [ARE137, N-(2-thioxo-imidazolidine-1-carbothioyl)-naphthyl-1-carboxamide]		100000	
Cc1noc(C)c1C(=O)/N=C1\SSC2=NCCN21 [ARE148]	460	350	
O=C(NC(=S)N1CCNC1=S)c1ccc(F)cc1F [ARE133, N-(2-thioxo-imidazolidine-1-carbothioyl)-2,4-difluorobenzamide]	110	170	
O=C(NC(=S)N1CCNC1=S)c1cccs1 [ARE111, N-(2-thioxo-imidazolidine-1-carbothioyl)-thiophene-2-carboxamide]	2790	1960	
COc1ccc(C(=O)NC(=S)N2CCNC2=S)cc1 [ARE121, N-(2-thioxo-imidazolidine-1-carbothioyl)-4-methoxybenzamide]	122000	55000	
O=C(NC(=S)N1CCNC1=S)c1cc2ccccc2s1 [ARE139, N-(2-thioxo-imidazolidine-1-carbothioyl)-benzothiophen-2-carboxamide]	260	4520	
COc1ccc(C(=O)N=C2SSC3=NCCN32)cc1 [ARE122, N-(5,6-dihydro-3H-imidazo[2,1-c]-1,2,4-dithiazol-3-ylidene)-4-methoxybenzamide]	830	210	
O=C(/N=C1\SSC2=NCCN21)c1cccc2ccccc12 [ARE138, N-(5,6-dihydro-3H-imidazo[2,1-c]-1,2,4-dithiazol-3-ylidene)-naphthyl-1-carboxamide]	450	130	
O=C(/N=C1\SSC2=NCCN21)c1ccc2ccccc2c1 [ARE136]			Cumulative Food Intake (g) (8 hr post administration) ([1]; 100 μmol/kg PO, second assay, Table D, vehicle 14.0): 9.0 g; Body Weight Gain (g) (6 hr post administration) [1, 2]: 11.0 g; Cumulative Water Intake (g) (6 hr post administration) [1, 2]: 15.25 g; water drunk less than the vehicle animal (FIG. 10B) ([1]; 100 μmol/kg oral): ~4 grams; body weight gain (FIG. 10C) ([1]; 100 μmol/kg oral, vehicle about 19.5 grams): 11 grams
CC(C)(C)c1ccc(C(=O)N=C2SSC3=NCCN32)cc1 [ARE118, N-(5,6-dihydro-3H-imidazo[2,1-c]-1,2,4-dithiazol-3-ylidene)-4-tert-butylbenzamide]	650	370	
O=C(NC(=S)N1CCNC1=S)c1ccco1 [ARE143, N-(2-thioxo-imidazolidine-1-carbothioyl)-furan-2-carboxamide]	68300	160000	
O=C(N=C1SSC2=NCCN21)c1ccon1 [ARE150, N-(5,6dihydro-3H-imidazo[2,1-c]-1,2,4-dithiazol-3-ylidene)-isoxazole-3-carboxamide]	330	100	
O=C(N=C1SSC2=NCCN21)c1ccc(C(F)(F)F)cc1 [ARE116, N-(5,6-dihydro-3H-imidazo[2,1-c]-1,2,4-dithiazol-3-ylidene)-4-trifluoromethylbenzamide]	570	170	
O=C(NC(=S)N1CCNC1=S)c1cccnc1 [ARE155, N-(2-thioxo-imidazolidine-1-carbothioyl)-pyridine-3-carboxamide]	6560	850	
CSc1ncccc1C(=O)NC(=S)N1CCNC1=S [ARE154, N-(2-thioxo-imidazolidine-1-carbothioyl)-pyridine-2-methylthio-3-carboxamide]		80000	
O=C(NC(=S)N1CCNC1=S)c1ccccc1 [ARE113, N-(2-thioxo-imidazolidine-1-carbothioyl)-benzamide]	100000		
